From article PMC7445743 (Journal of Medicinal Chemistry, 2020)
Structures can show the parent of a compound that is named as a salt.

Experiments:
DAPK1 = DAPK1 (Homo sapiens, UniProt P53355); details: supplement CSV
PAK4 = PAK4 (Homo sapiens, UniProt O96013); details: supplement CSV
CAMK1G = CAMK1G (Homo sapiens, UniProt Q96NX5); details: supplement CSV
PIM1 = PIM1 (Homo sapiens, UniProt P11309); details: supplement CSV
ABL = ABL (Homo sapiens, UniProt P00519); details: supplement CSV
CK2a = CK2a (Homo sapiens, UniProt P68400); details: supplement CSV
Chain of CK2a (P68400 whole entry): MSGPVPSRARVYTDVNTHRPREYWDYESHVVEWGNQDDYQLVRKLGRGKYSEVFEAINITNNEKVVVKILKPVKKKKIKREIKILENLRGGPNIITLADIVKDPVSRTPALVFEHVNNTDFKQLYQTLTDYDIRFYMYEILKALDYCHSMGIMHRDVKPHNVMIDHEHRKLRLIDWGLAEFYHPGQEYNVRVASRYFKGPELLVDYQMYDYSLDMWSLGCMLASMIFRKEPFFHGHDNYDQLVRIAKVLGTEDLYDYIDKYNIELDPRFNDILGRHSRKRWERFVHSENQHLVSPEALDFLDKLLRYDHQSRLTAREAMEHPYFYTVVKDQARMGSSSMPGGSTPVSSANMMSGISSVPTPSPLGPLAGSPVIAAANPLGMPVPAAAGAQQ

CAMK2A = CAMK2A (Homo sapiens, UniProt Q9UQM7); details: supplement CSV
Chain of CAMK2A (Q9UQM7 whole entry): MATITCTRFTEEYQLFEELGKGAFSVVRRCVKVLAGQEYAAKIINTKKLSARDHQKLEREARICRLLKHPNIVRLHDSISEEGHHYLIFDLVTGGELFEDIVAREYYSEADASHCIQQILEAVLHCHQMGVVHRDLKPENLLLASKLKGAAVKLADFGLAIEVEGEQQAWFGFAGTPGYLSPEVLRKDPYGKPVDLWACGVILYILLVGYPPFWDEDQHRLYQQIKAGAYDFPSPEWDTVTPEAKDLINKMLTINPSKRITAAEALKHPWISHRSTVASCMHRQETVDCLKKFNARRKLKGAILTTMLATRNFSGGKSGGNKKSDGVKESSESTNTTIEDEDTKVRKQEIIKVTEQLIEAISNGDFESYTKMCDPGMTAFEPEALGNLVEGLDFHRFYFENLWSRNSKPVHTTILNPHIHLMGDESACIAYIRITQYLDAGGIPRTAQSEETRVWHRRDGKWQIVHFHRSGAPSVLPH

DAPK3 = DAPK3 (Homo sapiens, UniProt O43293); details: supplement CSV
Chain of DAPK3 (O43293 whole entry): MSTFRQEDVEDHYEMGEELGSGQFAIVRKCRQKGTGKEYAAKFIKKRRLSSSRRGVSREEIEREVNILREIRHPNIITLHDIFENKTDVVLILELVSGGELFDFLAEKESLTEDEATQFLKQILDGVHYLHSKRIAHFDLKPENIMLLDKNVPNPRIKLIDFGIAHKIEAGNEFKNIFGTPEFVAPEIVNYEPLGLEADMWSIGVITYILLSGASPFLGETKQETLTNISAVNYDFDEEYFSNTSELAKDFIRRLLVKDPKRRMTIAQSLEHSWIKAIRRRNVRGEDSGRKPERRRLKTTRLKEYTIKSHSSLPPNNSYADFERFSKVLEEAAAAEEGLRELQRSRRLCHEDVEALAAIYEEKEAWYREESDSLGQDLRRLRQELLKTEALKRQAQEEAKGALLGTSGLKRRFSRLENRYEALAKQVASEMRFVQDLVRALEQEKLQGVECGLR

GSK3β = GSK3β (Homo sapiens, UniProt P49841); details: supplement CSV
Chain of GSK3β (P49841 whole entry, species assumed): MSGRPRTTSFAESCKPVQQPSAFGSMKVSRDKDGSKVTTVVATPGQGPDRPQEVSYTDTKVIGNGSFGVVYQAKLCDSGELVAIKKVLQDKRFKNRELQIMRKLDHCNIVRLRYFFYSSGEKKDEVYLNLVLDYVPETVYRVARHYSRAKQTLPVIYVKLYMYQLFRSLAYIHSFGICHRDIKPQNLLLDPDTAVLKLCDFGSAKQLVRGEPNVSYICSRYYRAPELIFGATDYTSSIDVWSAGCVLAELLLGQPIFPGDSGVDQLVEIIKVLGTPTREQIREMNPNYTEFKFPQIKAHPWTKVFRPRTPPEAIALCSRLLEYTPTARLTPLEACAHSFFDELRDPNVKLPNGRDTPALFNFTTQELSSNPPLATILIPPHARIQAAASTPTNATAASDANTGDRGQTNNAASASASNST

CaMK4 = target: T1, CaMK4 (Homo sapiens, UniProt Q16566); details: supplement CSV
T1 sequence (Q16566 1-473): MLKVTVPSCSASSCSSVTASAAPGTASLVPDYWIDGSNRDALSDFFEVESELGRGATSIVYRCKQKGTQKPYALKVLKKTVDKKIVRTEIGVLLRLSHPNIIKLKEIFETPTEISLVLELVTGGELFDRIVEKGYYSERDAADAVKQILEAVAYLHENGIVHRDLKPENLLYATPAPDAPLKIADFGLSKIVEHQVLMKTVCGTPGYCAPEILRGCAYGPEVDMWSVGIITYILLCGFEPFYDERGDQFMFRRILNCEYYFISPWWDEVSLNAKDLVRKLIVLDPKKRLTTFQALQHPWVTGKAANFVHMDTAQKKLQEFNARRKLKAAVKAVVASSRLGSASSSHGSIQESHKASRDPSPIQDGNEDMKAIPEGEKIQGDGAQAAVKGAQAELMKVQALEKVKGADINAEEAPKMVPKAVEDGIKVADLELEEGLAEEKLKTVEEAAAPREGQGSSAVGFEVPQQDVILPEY

DCLK1 = target: T2, DCLK1 (Homo sapiens, UniProt O15075); details: supplement CSV
T2 sequence (O15075 1-740): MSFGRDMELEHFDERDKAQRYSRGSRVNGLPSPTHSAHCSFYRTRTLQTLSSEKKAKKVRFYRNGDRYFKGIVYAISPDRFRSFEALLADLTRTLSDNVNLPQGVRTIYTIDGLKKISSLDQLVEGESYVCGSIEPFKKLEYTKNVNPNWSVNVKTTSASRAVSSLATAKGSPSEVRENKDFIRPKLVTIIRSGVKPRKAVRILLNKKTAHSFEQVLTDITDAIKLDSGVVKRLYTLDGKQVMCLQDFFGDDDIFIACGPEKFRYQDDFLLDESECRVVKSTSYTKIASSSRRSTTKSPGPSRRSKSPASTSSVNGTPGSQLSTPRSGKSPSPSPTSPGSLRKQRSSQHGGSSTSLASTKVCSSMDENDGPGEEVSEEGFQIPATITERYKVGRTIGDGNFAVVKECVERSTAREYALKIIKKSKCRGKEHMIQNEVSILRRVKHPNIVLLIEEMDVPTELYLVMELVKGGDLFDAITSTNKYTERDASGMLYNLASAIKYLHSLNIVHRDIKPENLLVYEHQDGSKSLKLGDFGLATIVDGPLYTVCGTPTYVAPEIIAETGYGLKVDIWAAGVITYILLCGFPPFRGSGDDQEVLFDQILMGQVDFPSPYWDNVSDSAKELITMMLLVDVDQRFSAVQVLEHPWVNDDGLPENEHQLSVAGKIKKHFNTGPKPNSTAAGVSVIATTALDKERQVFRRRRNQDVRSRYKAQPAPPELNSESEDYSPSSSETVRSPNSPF

PKNB(M.tuberculosis) = target: T3, PKNB(M.tuberculosis) (Mycobacterium tuberculosis, UniProt P9WI81); experiment: KINOMEscan; format: binding
T3 construct: purchased DiscoverX (Eurofins) KINOMEscan scanMAX; first lines in-house DSF / ADP-Glo
T3 sequence (P9WI81 whole entry): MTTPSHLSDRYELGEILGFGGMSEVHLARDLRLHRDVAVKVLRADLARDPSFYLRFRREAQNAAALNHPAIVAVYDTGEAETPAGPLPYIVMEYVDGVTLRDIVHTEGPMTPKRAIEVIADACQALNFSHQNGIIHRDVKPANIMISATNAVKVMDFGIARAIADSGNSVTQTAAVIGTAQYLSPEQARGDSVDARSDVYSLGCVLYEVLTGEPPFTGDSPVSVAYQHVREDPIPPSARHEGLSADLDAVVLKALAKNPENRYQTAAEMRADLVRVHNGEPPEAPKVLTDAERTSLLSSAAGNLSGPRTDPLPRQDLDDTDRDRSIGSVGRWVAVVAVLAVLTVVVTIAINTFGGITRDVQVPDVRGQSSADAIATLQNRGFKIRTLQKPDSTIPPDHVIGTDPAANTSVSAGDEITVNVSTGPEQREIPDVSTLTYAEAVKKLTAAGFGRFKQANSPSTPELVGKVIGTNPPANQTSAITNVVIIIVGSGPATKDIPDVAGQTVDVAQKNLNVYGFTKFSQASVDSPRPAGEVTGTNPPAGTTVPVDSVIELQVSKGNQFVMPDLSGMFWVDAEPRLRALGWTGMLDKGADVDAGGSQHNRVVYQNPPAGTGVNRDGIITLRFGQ

[1] = test system: kinase panel (468 Assays Tested); experiment: Pan-kinome selectivity, competitive binding assay (KINOMEscan); details: for S-Score(35): 1 μM
SYK = SYK (Homo sapiens, UniProt P43405); details: supplement CSV

Chain of ABL (P00519 whole entry, species assumed): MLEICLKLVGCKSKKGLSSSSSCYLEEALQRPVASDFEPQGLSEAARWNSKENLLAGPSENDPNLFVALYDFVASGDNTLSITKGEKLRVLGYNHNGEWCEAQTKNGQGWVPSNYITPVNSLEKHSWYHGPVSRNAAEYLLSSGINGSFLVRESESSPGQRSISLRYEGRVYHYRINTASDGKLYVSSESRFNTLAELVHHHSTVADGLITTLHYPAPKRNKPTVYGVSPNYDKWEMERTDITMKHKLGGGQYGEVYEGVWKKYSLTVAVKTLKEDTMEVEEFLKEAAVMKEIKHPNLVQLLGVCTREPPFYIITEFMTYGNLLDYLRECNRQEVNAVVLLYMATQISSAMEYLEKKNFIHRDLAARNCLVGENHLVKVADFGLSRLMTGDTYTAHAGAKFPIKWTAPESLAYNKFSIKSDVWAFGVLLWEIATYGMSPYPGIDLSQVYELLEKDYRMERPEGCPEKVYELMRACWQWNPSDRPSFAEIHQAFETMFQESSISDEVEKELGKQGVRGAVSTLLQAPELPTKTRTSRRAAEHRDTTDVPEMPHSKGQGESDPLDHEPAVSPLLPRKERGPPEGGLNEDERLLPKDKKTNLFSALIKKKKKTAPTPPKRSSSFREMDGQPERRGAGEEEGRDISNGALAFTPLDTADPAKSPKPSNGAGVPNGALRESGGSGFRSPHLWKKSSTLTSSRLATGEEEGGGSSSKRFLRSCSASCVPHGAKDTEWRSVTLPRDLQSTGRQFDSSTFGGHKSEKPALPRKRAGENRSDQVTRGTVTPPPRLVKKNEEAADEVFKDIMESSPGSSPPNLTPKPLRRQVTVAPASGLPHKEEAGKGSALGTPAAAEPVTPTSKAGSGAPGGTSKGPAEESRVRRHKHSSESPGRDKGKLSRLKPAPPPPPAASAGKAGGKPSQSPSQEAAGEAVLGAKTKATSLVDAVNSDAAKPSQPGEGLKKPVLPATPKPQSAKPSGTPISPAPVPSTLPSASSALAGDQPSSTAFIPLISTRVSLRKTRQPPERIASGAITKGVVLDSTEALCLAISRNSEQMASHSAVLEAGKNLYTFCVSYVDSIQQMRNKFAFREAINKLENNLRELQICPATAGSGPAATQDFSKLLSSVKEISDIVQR
Chain of PAK4 (O96013 whole entry): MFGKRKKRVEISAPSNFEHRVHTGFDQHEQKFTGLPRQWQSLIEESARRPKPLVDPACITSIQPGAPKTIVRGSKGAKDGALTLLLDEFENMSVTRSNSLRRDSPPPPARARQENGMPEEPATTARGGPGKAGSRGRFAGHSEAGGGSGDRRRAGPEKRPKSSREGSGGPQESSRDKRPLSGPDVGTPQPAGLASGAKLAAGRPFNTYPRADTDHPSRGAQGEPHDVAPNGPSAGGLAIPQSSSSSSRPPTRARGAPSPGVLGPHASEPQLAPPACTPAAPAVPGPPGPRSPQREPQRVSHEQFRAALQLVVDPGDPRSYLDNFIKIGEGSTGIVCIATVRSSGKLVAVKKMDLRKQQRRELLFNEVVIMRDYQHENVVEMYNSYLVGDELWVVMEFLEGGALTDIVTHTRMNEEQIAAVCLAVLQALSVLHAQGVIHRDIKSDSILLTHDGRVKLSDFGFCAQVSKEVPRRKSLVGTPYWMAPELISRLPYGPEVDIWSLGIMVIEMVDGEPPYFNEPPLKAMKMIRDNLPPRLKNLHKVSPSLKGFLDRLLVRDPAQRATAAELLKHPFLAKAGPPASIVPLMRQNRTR
Chain of CAMK1G (Q96NX5 whole entry): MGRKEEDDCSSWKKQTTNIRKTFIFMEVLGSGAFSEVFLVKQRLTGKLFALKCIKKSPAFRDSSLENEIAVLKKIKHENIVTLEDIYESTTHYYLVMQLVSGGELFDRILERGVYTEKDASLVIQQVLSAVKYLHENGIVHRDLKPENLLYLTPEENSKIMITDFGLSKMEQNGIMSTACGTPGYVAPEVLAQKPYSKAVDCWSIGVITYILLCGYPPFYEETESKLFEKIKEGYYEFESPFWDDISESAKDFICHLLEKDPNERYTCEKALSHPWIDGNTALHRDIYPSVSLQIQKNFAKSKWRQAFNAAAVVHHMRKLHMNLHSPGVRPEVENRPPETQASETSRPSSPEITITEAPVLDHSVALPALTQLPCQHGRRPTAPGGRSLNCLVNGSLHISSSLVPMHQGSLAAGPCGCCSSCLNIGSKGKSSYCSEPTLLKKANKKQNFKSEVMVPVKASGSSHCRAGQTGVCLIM
Chain of PIM1 (P11309 whole entry): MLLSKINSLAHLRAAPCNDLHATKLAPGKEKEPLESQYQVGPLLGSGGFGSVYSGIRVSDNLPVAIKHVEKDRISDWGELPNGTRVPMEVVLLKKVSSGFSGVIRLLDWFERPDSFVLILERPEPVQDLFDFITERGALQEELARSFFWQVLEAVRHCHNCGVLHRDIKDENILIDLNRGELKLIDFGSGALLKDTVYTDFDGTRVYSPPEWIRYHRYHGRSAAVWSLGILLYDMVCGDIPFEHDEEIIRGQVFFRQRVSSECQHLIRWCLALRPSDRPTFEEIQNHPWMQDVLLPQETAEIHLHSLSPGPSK

SMILES	DAPK1 Tm (DAPK1)	PAK4 Tm (PAK4)	CAMK1G Tm (CAMK1G)	PIM1 Tm (PIM1)	ABL1 Tm (ABL)	CK2alpha Tm (CK2a)	CAMK2A Tm (CAMK2A)	DAPK3 Tm (DAPK3)	GSK3B Tm (GSK3β)	CAMK4 Tm (CaMK4)	DCAMKL1 Tm (DCLK1)	remaining binding at 1 µM (PKNB(M.tuberculosis)) [%]	S-Score(35) [1]	SYK Tm (SYK)	wild-type kinases inhibited by >90% ([1]; competitive binding assay at 1 μM)
CN(CCN)c1ncc(C(N)=O)c(Nc2cccc(C(F)(F)F)c2)n1 [Compound 3, 2-((2-Aminoethyl)(methyl)amino)-4-((3-(trifluoromethyl)phenyl)amino)pyrimidine-5-carboxamide Hydrochloride]	3.2 0C	2.1 0C	4.91 0C	4.42 0C	1.75 0C	1.26 0C	0.49 0C								
CC(C)(C)c1cccc(Nc2nc(N3CCC[C@H](N)C3)ncc2C(N)=O)c1 [Compound 10, (S)-2-(3-Aminopiperidin-1-yl)-4-((3-(tert-butyl)phenyl)amino)pyrimidine-5-carboxamide Hydrochloride]		1.24 0C	9.24 0C				0.77 0C	5.43 0C	0.67 0C	3.78 0C	0.3 0C				
NC(=O)c1cnc(N2CCC[C@H](N)C2)nc1Nc1cc(C(F)(F)F)cc(C(F)(F)F)c1 [Compound 9]		3.17 0C	16.18 0C				1.09 0C	8.72 0C	-0.47 0C	7.06 0C	1.22 0C				
CN(C)CCN(C)c1ncc(C(N)=O)c(Nc2cccc(C(F)(F)F)c2)n1 [Compound 5, 2-((2-(Dimethylamino)ethyl)(methyl)amino)-4-((3-(trifluoromethyl)phenyl)amino)pyrimidine-5-carboxamide Hydrochloride]			2.78 0C				0.29 0C								
CC(C)(C)c1cc(Nc2nc(N3CCC[C@H](N)C3)ncc2C(N)=O)cc(C(C)(C)C)c1 [Compound 14, (S)-2-(3-Aminopiperidin-1-yl)-4-((3,5-di-tert-butylphenyl)amino)pyrimidine-5-carboxamide]		-0.72 0C	10.22 0C		-0.28 0C		0.69 0C	4.82 0C	-0.63 0C	6.39 0C	1.34 0C	97	0.01		
CS(=O)(=O)c1cccc(Nc2nc(N3CCC[C@H](N)C3)ncc2C(N)=O)c1 [Compound 11, (S)-2-(3-Aminopiperidin-1-yl)-4-((3-(methylsulfonyl)phenyl)amino)pyrimidine-5-carboxamide]		3.75 0C	7.26 0C				0.53 0C	6.85 0C	1.4 0C	4.49 0C	-0.09 0C				
NC(=O)c1cnc(N2CCC[C@H](N)C2)nc1Nc1cccc(-c2ccccc2)c1 [Compound 12, (S)-4-([1,1′-Biphenyl]-3-ylamino)-2-(3-aminopiperidin-1-yl)pyrimidine-5-carboxamide Hydrochloride]		5.67 0C	12.19 0C				2.35 0C	8.03 0C	0.32 0C	4.98 0C	1.64 0C				
NCCNc1ncc(C(N)=O)c(Nc2cccc(C(F)(F)F)c2)n1 [Compound 1, 2-((2-Aminoethyl)amino)-4-((3-(trifluoromethyl)phenyl)amino)pyrimidine-5-carboxamide hydrochloride, reference compound]	2.33 0C	4.62 0C	4.11 0C	1 0C	1.33 0C	0.87 0C	0.21 0C	4.05 0C	3.4 0C	1.34 0C	0.11 0C			7.51 0C	
CC(C)(C#N)c1cccc(Nc2nc(N3CCC[C@H](N)C3)ncc2C(N)=O)c1 [Compound 13, (S)-2-(3-Aminopiperidin-1-yl)-4-((3-(2-cyanopropan-2-yl)phenyl)amino)pyrimidine-5-carboxamide]		1.98 0C	6.35 0C				0.6 0C	6.82 0C	0.46 0C	4.38 0C	0.32 0C				
CC(C)c1cc(Nc2nc(N3CCC[C@H](N)C3)ncc2C(N)=O)cc(C(C)C)c1 [Compound 15, (S)-2-(3-Aminopiperidin-1-yl)-4-((3,5-diisopropylphenyl)amino)pyrimidine-5-carboxamide]		4.76 0C	10.33 0C				2.19 0C	8.08 0C	-0.2 0C	6.46 0C	1.96 0C				
CNCCN(C)c1ncc(C(N)=O)c(Nc2cccc(C(F)(F)F)c2)n1 [Compound 4, 2-(Methyl(2-(methylamino)ethyl)amino)-4-((3-(trifluoromethyl)phenyl)amino)pyrimidine-5-carboxamide Hydrochloride]			1.13 0C				0.1 0C								
CNC(=O)c1cnc(NCCN)nc1Nc1cccc(C(F)(F)F)c1 [Compound 2, 2-((2-Aminoethyl)amino)-N-methyl-4-((3-(trifluoromethyl)phenyl)amino)pyrimidine-5-carboxamide, reference compound]			0.15 0C				-0.22 0C								
NC(=O)c1cnc(N2CCCC(N)C2)nc1Nc1cccc(C(F)(F)F)c1 (racemic) [Compound 6, (rac)-2-(3-Aminopiperidin-1-yl)-4-((3-(trifluoromethyl)phenyl)amino)pyrimidine-5-carboxamide Hydrochloride]			8.82 0C				1.21 0C								
NC(=O)c1cnc(N2CCC[C@H](N)C2)nc1Nc1cccc(C(F)(F)F)c1 [Compound 8, (S)-2-(3-Aminopiperidin-1-yl)-4-((3-(trifluoromethyl)phenyl)amino)pyrimidine-5-carboxamide Hydrochloride]		4.73 0C	9.55 0C				1.08 0C					84	0.12		11
